Reference: US11129820B2, “Ferroportin-inhibitor salts” (Vifor (International) AG, priority 2017, dated 2021)
Values joined by “and” are separate entries in the source; they are usually repeats but may differ in a detail not shown here. Equal entries are not always repeated. Marks after values point to notes of the source that are not given here.

Assays:
[1] = tested on: beta2-microglobulin deficient (b2m−/−) mice; assay: Correction of hyperferremia in beta2-microglobulin deficient mice; type: in vivo, mouse
Method: Female and male homozygous b2m−/− mice are supplied from Jackson Laboratories (B6.129P2-B2mtm1Unc/J, Stock Number: 002087) at age of 6 to 7 weeks and fed standard diet (Harlan Provimi Kliba 3436) ad libitum. Age and gender matched WT C57BL/6 mice are supplied by Charles River. To study the acute effects of ferroportin (Fpn) inhibitors in iron overload b2m−/− mice are treated with compounds or the corresponding amount of vehicle at a volume of 10 ml/kg body weight. Fpn inhibitor compounds are formulated in 0.5% methylcellulose/water or 20% cremophor EL/water and dosed p.o. in mice at 50 mg/kg body weight. WT controls received only vehicle. Three hours later, mice are pre-terminally anesthetized in isoflurane chambers and blood is collected by retro-orbital bleeding. Mice are sacrificed by cervical dislocation and spleens, livers and duodena are harvested and used for biomarker analysis. All experiments are performed in compliance with license approved by the responsible veterinarian authorities. Serum is isolated by centrifugation of blood into gel-containing microtainers (BD Biosciences) and serum iron is determined by the MULTIGENT Iron assay (Abbott Diagnostics, Cat. 6K95). Four to nine mice per group are used and one-way ANOVA with Bonferroni's multiple comparison test is applied to analyze the statistical differences between the experimental groups.
Blood is collected 1 (#) or 3 (##) hours after oral administration of the indicated doses of Fpn inhibitors to beta2-microglobulin deficient mice and serum iron concentrations are measured. Relative reduction (%) of serum iron levels are shown, which were calculated by subtracting the average of serum iron values of animals dosed with the Fpn inhibitor from that of vehicle-treated animals. The difference in average serum iron values between vehicle and compound treated groups was then divided by the average of serum iron of the vehicle control group and listed as percentage. Values are listed separately for female (♀) and male (♂) animals, because a marked sex-dependent difference in efficacy was noted. Statistically significant (2-way ANOVA with Bonferroni post test) differences observed between compound-treated and vehicle-treated groups are indicated (*** p<0.001; ** p<0.01, p<0.05).

Hbb th3/+ mice = assay: Mouse model of β-thalassemia intermedia (Hbb th3/+ mice); type: in vivo; settings: for Decrease in RDW by 20/60 mg/kg compound / Decrease in ^58Fe spleen iron content by 20/60 mg/kg compound / Decrease in blood reticulocyte counts by 20/60 mg/kg compound / Decrease in leukocyte counts by 20/60 mg/kg compound / Decrease in serum erythropoietin by 20/60 mg/kg compound / Increase in blood erythrocyte counts by 20/60 mg/kg compound / Increase in hematocrit by 20/60 mg/kg compound / Prevention of liver ^58Fe loading by 20/60 mg/kg / Decrease in serum iron by 20/60 mg/kg compound / Decreased in ROS in bone marrow erythrocytes: % change to vehicle; for Correction of anemia at day 20-48 by 20/60 mg/kg: hemoglobin difference to vehicle; for Decrease in serum iron by 20/60 mg/kg compound: dosed for 3 h
Method: The efficacy of Fpn inhibitors is investigated using a mouse model of transfusion-independent β-thalassemia. Mice with heterozygous deletion of β 1 and β 2 globin genes (called Hbb th3/+ mice) develop transfusion-independent anemia, ineffective erythropoiesis, splenomegaly and secondary iron overload in spleen, liver and kidneys. […] Hbb th3/+ mice are dosed twice daily with either compound at 20 or 60 mg/kg or with methylcellulose (10 ml/kg, Sigma, Cat. 274429) as a vehicle. Between both doses mice have access to drinking water supplemented with 1 mM ^58Fe(II)-sulfate (Vifor Pharma, Batch No. ROR 3096) and 10 mM ascorbic acid (Sigma, Cat. 795437) for 6 h. The concentration of ^58Fe(II)-Sulfate supplied in the drinking water is adjusted to substitute for intake of standard rodent diet with iron content of 250 ppm. Water without ^58Fe(II)-Sulfate and ascorbic acid is provided during the remaining 18 h. Dosing of Fpn inhibitors or vehicle followed by exposure to iron-containing water is repeated for 20 to 46 days in individual experiments.
Additional hematologic parameters are measured in terminal blood using automated blood cell analyzer.
The inefficient erythropoiesis of Hbb th3/+ mice causes excessive proliferation of erythroid precursors in spleen, leading to splenomegaly.
Elevated erythropoietin levels in Hbb th3/+ mice induce overexpression of erythroferrone, an erythroid regulator hormone known to suppress hepcidin (Kautz L. et al, Nat. Genet., 2014). […] Erythroferrone is produced by erythrocyte precursors proliferating massively in spleens of Hbb th3/+ mice as a consequence of extramedullar erythropoiesis.
Increased iron demand due to inefficient erythropoiesis and chronically low hepcidin levels in patients with thalassemia causes organ iron loading and associated morbidities, such as hepatocellular carcinoma and heart failure (Rivella S. Haematologica, 2015). Hbb th3/+ mice absorb excessive amounts of iron as a consequence of inadequately low hepcidin levels relative to the high iron content in liver, spleen and kidney and increased ferroportin expression in duodenum (Gardenghi S., Blood, 2007).
Additionally, reactive oxygen species (ROS) are detected in bone marrow cells using a fluorescent indicator, CM-H2DCFDA (Thermo Fisher Scientific, Cat. C6827).
Data are expressed as difference to the vehicle control group for hemoglobin and as % change to the vehicle control group for all other parameter shown

[2] = tested on: beta2-microglobulin deficient (b2m−/−) mice; assay: Prevention of iron overload in beta2-microglobulin deficient mice; type: in vivo, mouse; settings: 14 days
Method: In addition, feeding 3 week old b2m−/− mice a diet with low iron content (LID) immediately after weaning prevents liver iron loading by age of 6-7 weeks. The efficacy of the Fpn inhibitors to prevent liver iron accumulation in b2m−/− mice is investigated. Three weeks old b2−/− mice fed LID are dosed with either Fpn inhibitor or vehicle (methylcellulose; 10 ml/kg). Mice have access to drinking water supplemented with 1 mM ^58Fe(II)-sulfate and 10 mM ascorbic acid. Dosing of Fpn inhibitor or vehicle followed by exposure to iron-containing water is repeated for 14 days. Mice are euthanized and the liver and spleen iron contents are analyzed by ICP-OES (all iron isotopes) and liver tissue is also analyzed for ^58Fe concentration (ICP-MS).
Livers and spleens are collected after 14 day treatment (p.o.; b.i.d) of beta2-microglobulin deficient mice with the indicated doses of Fpn inhibitors. Total liver and spleen tissue iron concentrations are measured using ICP-OES and ^58Fe liver concentrations are determined with ICP-MS. Relative changes (%) of tissue iron levels are calculated by normalizing the difference between the averages of tissue iron values of animals dosed with the Fpn inhibitors and those of vehicle-treated animals with the average of vehicle controls.

[3] = 20 mg/kg twice daily for 20-46 days
[4] = 60 mg/kg twice daily for 20-46 days

| Compound | Decrease in ^58Fe spleen iron content by 20/60 mg/kg compound (Hbb th3/+ mice; [3]) | Decrease in blood reticulocyte counts by 20/60 mg/kg compound (Hbb th3/+ mice; [3]) | Decrease in leukocyte counts by 20/60 mg/kg compound (Hbb th3/+ mice; [3]) | Increase in blood erythrocyte counts by 20/60 mg/kg compound (Hbb th3/+ mice; [3]) | Increase in hematocrit by 20/60 mg/kg compound (Hbb th3/+ mice; [3]) | Prevention of liver ^58Fe loading by 20/60 mg/kg (Hbb th3/+ mice; [3]) | Correction of anemia at day 20-48 by 20/60 mg/kg (Hbb th3/+ mice; 20 mg/kg twice daily) | Decrease in serum iron by 20/60 mg/kg compound (Hbb th3/+ mice; 20 mg/kg) | Decrease in ^58Fe spleen iron content by 20/60 mg/kg compound (Hbb th3/+ mice; [4]) | Decrease in blood reticulocyte counts by 20/60 mg/kg compound (Hbb th3/+ mice; [4]) | Increase in blood erythrocyte counts by 20/60 mg/kg compound (Hbb th3/+ mice; [4]) | Increase in hematocrit by 20/60 mg/kg compound (Hbb th3/+ mice; [4]) | Prevention of liver ^58Fe loading by 20/60 mg/kg (Hbb th3/+ mice; [4]) | Correction of anemia at day 20-48 by 20/60 mg/kg (Hbb th3/+ mice; 60 mg/kg twice daily) | Decrease in serum iron by 20/60 mg/kg compound (Hbb th3/+ mice; 60 mg/kg) | Total Liver Iron Reduction (%) ([2]; female ♀, 20 mg/kg p.o. b.i.d.) | Total Spleen Iron Increase (%) ([2]; female ♀, 20 mg/kg p.o. b.i.d.) | ^58Fe Liver Iron Reduction (%) ([2]; female ♀, 20 mg/kg p.o. b.i.d.) | Total Liver Iron Reduction (%) ([2]; male ♂, 20 mg/kg p.o. b.i.d.) | ^58Fe Liver Iron Reduction (%) ([2]; male ♂, 20 mg/kg p.o. b.i.d.) | other results |
| --- | --- | --- | --- | --- | --- | --- | --- | --- | --- | --- | --- | --- | --- | --- | --- | --- | --- | --- | --- | --- | --- |
| O=C(NCc1ncccc1F)c1cnc(CCNCCc2nc3ccccc3[nH]2)o1 [Example Compound No. 1] | 14% | 8% | 32% | 4% | 0% | 12% | 6 g/L | 49% | 48% | 39% | 8% | 4% | 40% | 20 g/L | 66% | −1% | 21% | 4% | 16% | −8% | Serum Iron Reduction (%) ([1]; female ♀, 20 mg/kg oral, blood collection time not marked): 31** %; Serum Iron Reduction (%) ([1]; female ♀, 60 mg/kg oral, blood collection time not marked): 52** %; Serum Iron Reduction (%) ([1]; male ♂, 20 mg/kg oral, blood collection time not marked): 31** %; Serum Iron Reduction (%) ([1]; male ♂, 60 mg/kg oral, blood collection time not marked): 59** %; Decrease in RDW by 20/60 mg/kg compound (Hbb th3/+ mice; [3]): 3%; Decrease in serum erythropoietin by 20/60 mg/kg compound (Hbb th3/+ mice; [3]): 64%; Decrease in RDW by 20/60 mg/kg compound (Hbb th3/+ mice; [4]): 16%; Decrease in leukocyte counts by 20/60 mg/kg compound (Hbb th3/+ mice; [4]): 44%; Decrease in serum erythropoietin by 20/60 mg/kg compound (Hbb th3/+ mice; [4]): 78%; Decreased in ROS in bone marrow erythrocytes (Hbb th3/+ mice; first value of the pair (20 mg/kg; dose not printed in this line)): 20%; Decreased in ROS in bone marrow erythrocytes (Hbb th3/+ mice; second value of the pair (60 mg/kg; dose not printed in this line)): 45%; Total Liver Iron Reduction (%) ([2]; female ♀, 60 mg/kg p.o. b.i.d.): 15%; Total Spleen Iron Increase (%) ([2]; female ♀, 60 mg/kg p.o. b.i.d.): 65%; ^58Fe Liver Iron Reduction (%) ([2]; female ♀, 60 mg/kg p.o. b.i.d.): 59%; Total Spleen Iron Increase (%) ([2]; male ♂, 20 mg/kg p.o. b.i.d.): 28%; Total Liver Iron Reduction (%) ([2]; male ♂, 60 mg/kg p.o. b.i.d.): 25%; Total Spleen Iron Increase (%) ([2]; male ♂, 60 mg/kg p.o. b.i.d.): 49%; ^58Fe Liver Iron Reduction (%) ([2]; male ♂, 60 mg/kg p.o. b.i.d.): 22% |
| O=C(NCc1ncccc1F)c1csc(CCNCc2nc3ccccc3[nH]2)n1 [Example Compound No. 40] | 19% | 19% | 0% | 2% | 0% | 20% | 6 g/L | 28% | 51% | 43% | 22% | 1% | 48% | 13 g/L | 58% | 32% | 50* % | 44% | 31% | 53* % | Correction of elevated serum iron, in words ([1]; b2m−/− mice, 50 mg/kg p.o., 3 h): corrected the elevated serum iron to the levels observed in WT controls; Serum Iron Reduction (%) ([1]; female ♀, 20 mg/kg oral, 1 hour (#)): 0%; Serum Iron Reduction (%) ([1]; female ♀, 60 mg/kg oral, 1 hour (#), 60 mg/kg): 13% and 10%; Serum Iron Reduction (%) ([1]; male ♂, 20 mg/kg oral, 1 hour (#)): 35** %; Serum Iron Reduction (%) ([1]; male ♂, 60 mg/kg oral, 1 hour (#), 60 mg/kg): 32** % and 58** % |
